Measurements from ChEMBL document CHEMBL2157909, “Design, synthesis, spectral and biological evaluation of novel 1-allyl substituted 2,6-diphenylpiperidin-4-ones and its derivatives of oximes/oxime ethers” (2012).
In brackets after ≈: the same amount, converted by molar mass.

Key:
Penicillium chrysogenum = test: Antifungal activity against Penicillium chrysogenum ATCC 28089 after 72 to 96 hrs by two fold serial dilution method; type: functional
Aspergillus niger = test: Antifungal activity against Aspergillus niger ATCC 635 after 72 to 96 hrs by two fold serial dilution method; type: functional
Fusarium oxysporum = test: Antifungal activity against Fusarium oxysporum ATCC 48112 after 72 to 96 hrs by two fold serial dilution method; type: functional
Salmonella typhi = test: Antibacterial activity against Salmonella typhi ATCC 25021 after 24 hrs by two fold serial dilution method; type: functional, Salmonella enterica subsp. enterica serovar Typhi; conditions: Salmonella enterica, ATCC 25021, 24 h
Rhizopus = test: Antifungal activity against Rhizopus sp. ATCC 2842 after 72 to 96 hrs by two fold serial dilution method; type: functional
Escherichia coli = test: Antibacterial activity against Escherichia coli ATCC 26032 after 24 hrs by two fold serial dilution method; type: functional; conditions: ATCC 26032, 24 h
Pseudomonas = test: Antibacterial activity against Pseudomonas ATCC 27853 after 24 hrs by two fold serial dilution method; type: functional; conditions: ATCC 27853, 24 h
Aspergillus flavus = test: Antifungal activity against Aspergillus flavus ATCC 525 after 72 to 96 hrs by two fold serial dilution method; type: functional
Bacillus subtilis = test: Antibacterial activity against Bacillus subtilis ATCC 530 after 24 hrs by two fold serial dilution method; type: functional; conditions: ATCC 530, 24 h
Staphylococcus aureus = test: Antibacterial activity against Staphylococcus aureus ATCC 25930 after 24 hrs by two fold serial dilution method; type: functional; conditions: ATCC 25930, 24 h
[1] = Ratio of MIC for Pseudomonas ATCC 27853 to MIC for Salmonella typhi ATCC 25021; type: functional
[2] = Ratio of MIC for Bacillus subtilis ATCC 530 to MIC for Salmonella typhi ATCC 25021; type: functional

Compound	MIC (Penicillium chrysogenum) [µg/mL]	MIC (Aspergillus niger) [µg/mL]	MIC (Fusarium oxysporum) [µg/mL]	MIC (Salmonella typhi) [µg/mL]	MIC (Rhizopus) [µg/mL]	MIC (Escherichia coli) [µg/mL]	MIC (Pseudomonas) [µg/mL]	MIC (Aspergillus flavus) [µg/mL]	MIC (Bacillus subtilis) [µg/mL]	MIC (Staphylococcus aureus) [µg/mL]	Ratio [1]	Ratio [2]
C=CCN1[C@H](c2ccccc2)C/C(=N\OCc2ccccc2)[C@@H](CC)[C@@H]1c1ccccc1 (relative stereo)	12.5 (≈ 29.4 µM)	50 (≈ 118 µM)	25 (≈ 58.9 µM)	25 (≈ 58.9 µM)	12.5 (≈ 29.4 µM)	6.25 (≈ 14.7 µM)	100 (≈ 236 µM)	100 (≈ 236 µM)	50 (≈ 118 µM)	200 (≈ 471 µM)		
C=CCN1[C@@H](c2ccccc2)C(C)(C)/C(=N/OCc2ccccc2)C[C@H]1c1ccccc1 (relative stereo)	6.25 (≈ 14.7 µM)	25 (≈ 58.9 µM)	12.5 (≈ 29.4 µM)	12.5 (≈ 29.4 µM)	50 (≈ 118 µM)	50 (≈ 118 µM)	25 (≈ 58.9 µM)	12.5 (≈ 29.4 µM)	6.25 (≈ 14.7 µM)	50 (≈ 118 µM)		
C=CCN1[C@H](c2ccccc2)CC(=O)[C@@H](C)[C@@H]1c1ccccc1 (relative stereo)	50 (≈ 164 µM)	50 (≈ 164 µM)	100 (≈ 327 µM)	50 (≈ 164 µM)	200 (≈ 655 µM)	100 (≈ 327 µM)	200 (≈ 655 µM)	50 (≈ 164 µM)	200 (≈ 655 µM)	100 (≈ 327 µM)		
C=CCN1[C@H](c2ccc(Cl)cc2)CC(=O)[C@@H](C)[C@@H]1c1ccc(Cl)cc1 (relative stereo)	6.25 (≈ 16.7 µM)	50 (≈ 134 µM)	12.5 (≈ 33.4 µM)	12.5 (≈ 33.4 µM)	25 (≈ 66.8 µM)	12.5 (≈ 33.4 µM)	50 (≈ 134 µM)	25 (≈ 66.8 µM)	50 (≈ 134 µM)	25 (≈ 66.8 µM)		
C=CCN1[C@H](c2ccc(OC)cc2)CC(=O)[C@@H](C)[C@@H]1c1ccc(OC)cc1 (relative stereo)	50 (≈ 137 µM)	12.5 (≈ 34.2 µM)	25 (≈ 68.4 µM)	25 (≈ 68.4 µM)	25 (≈ 68.4 µM)	50 (≈ 137 µM)	100 (≈ 274 µM)	50 (≈ 137 µM)	6.25 (≈ 17.1 µM)	100 (≈ 274 µM)		
C=CCN1[C@H](c2ccccc2)CC(=O)[C@@H](CC)[C@@H]1c1ccccc1 (relative stereo)	25 (≈ 78.3 µM)	25 (≈ 78.3 µM)	50 (≈ 157 µM)	100 (≈ 313 µM)	12.5 (≈ 39.1 µM)	50 (≈ 157 µM)	100 (≈ 313 µM)	100 (≈ 313 µM)	12.5 (≈ 39.1 µM)	100 (≈ 313 µM)		
C=CCN1[C@@H](c2ccccc2)C(C)(C)C(=O)C[C@H]1c1ccccc1 (relative stereo)	25 (≈ 78.3 µM)	50 (≈ 157 µM)	50 (≈ 157 µM)	12.5 (≈ 39.1 µM)	100 (≈ 313 µM)	25 (≈ 78.3 µM)	25 (≈ 78.3 µM)	25 (≈ 78.3 µM)	100 (≈ 313 µM)	25 (≈ 78.3 µM)		
C=CCN1[C@H](c2ccccc2)C/C(=N\O)[C@@H](C)[C@@H]1c1ccccc1 (relative stereo)	100 (≈ 312 µM)	50 (≈ 156 µM)	100 (≈ 312 µM)	100 (≈ 312 µM)	25 (≈ 78 µM)	50 (≈ 156 µM)	200 (≈ 624 µM)	200 (≈ 624 µM)	50 (≈ 156 µM)	100 (≈ 312 µM)		
C=CCN1[C@H](c2ccc(C)cc2)C/C(=N\O)[C@@H](C)[C@@H]1c1ccc(C)cc1 (relative stereo)	200 (≈ 574 µM)	12.5 (≈ 35.9 µM)	25 (≈ 71.7 µM)	12.5 (≈ 35.9 µM)	100 (≈ 287 µM)	50 (≈ 143 µM)	25 (≈ 71.7 µM)	50 (≈ 143 µM)	50 (≈ 143 µM)	200 (≈ 574 µM)	2	3
C=CCN1[C@H](c2ccc(Cl)cc2)C/C(=N\O)[C@@H](C)[C@@H]1c1ccc(Cl)cc1 (relative stereo)	50 (≈ 128 µM)	6.25 (≈ 16.1 µM)	12.5 (≈ 32.1 µM)	12.5 (≈ 32.1 µM)	25 (≈ 64.2 µM)	100 (≈ 257 µM)	50 (≈ 128 µM)	50 (≈ 128 µM)	50 (≈ 128 µM)	6.25 (≈ 16.1 µM)		
C=CCN1[C@H](c2ccc(OC)cc2)C/C(=N\O)[C@@H](C)[C@@H]1c1ccc(OC)cc1 (relative stereo)	100 (≈ 263 µM)	50 (≈ 131 µM)	25 (≈ 65.7 µM)	100 (≈ 263 µM)	25 (≈ 65.7 µM)	50 (≈ 131 µM)	12.5 (≈ 32.9 µM)	12.5 (≈ 32.9 µM)	100 (≈ 263 µM)	25 (≈ 65.7 µM)		
C[C@@H]1[C@H](O)[C@@H](C)/C=C/C=C/C=C/C=C/C=C/C=C/C=C/[C@H](O[C@@H]2O[C@H](C)[C@@H](O)[C@H](N)[C@@H]2O)C[C@@H]2O[C@](O)(C[C@@H](O)C[C@@H](O)[C@H](O)CC[C@@H](O)C[C@@H](O)CC(=O)O[C@H]1C)C[C@H](O)[C@H]2C(=O)O [AMPHOTERICIN B]	12.5 (≈ 13.5 µM)	50 (≈ 54.1 µM)	50 (≈ 54.1 µM)		25 (≈ 27.1 µM)			50 (≈ 54.1 µM)				
CN[C@@H]1[C@H](O[C@H]2[C@H](O[C@H]3[C@H](O)[C@@H](O)[C@H](N=C(N)N)[C@@H](O)[C@@H]3N=C(N)N)O[C@@H](C)[C@]2(O)C=O)O[C@@H](CO)[C@H](O)[C@H]1O [STREPTOMYCIN]				50 (≈ 86 µM)		12.5 (≈ 21.5 µM)	25 (≈ 43 µM)		12.5 (≈ 21.5 µM)	50 (≈ 86 µM)		
